Legend:
[1] = test system: rats; test: Locomotor activity, distance travelled; assay type: in vivo
From the text: Stimulant drugs cause far larger increases in distance travelled with escalating doses, reflective of a direct motor stimulant property not seen with psilocybin.

[2] = test system: Long Evans rats; test: Progressive ratio (PR) test, Study B; assay type: in vivo
Protocol: General: Experiments were conducted to test psilocybin doses in the range of 0.01-0.2 mg/kg psilocybin administered S.C. across progressive ratio (PR) and 5-choice serial reaction time task (5CSRTT) to examine the effect of psilocybin on endophenotypes of motivation and attention. In each study, a population of out-bred Long Evans rats was first tested as a group for response to the PR and 5CSRTT. Each group was then divided into subgroups by tertiles according to performance, and then exposed to various dose levels immediately prior to re-testing at various psilocybin dose levels.
The PR test is used to answer how willing the test subject is to work for food (i.e. test of motivation). A single 45 mg food pellet (i.e. reinforcer) is made available to the test animal based on lever press response. To obtain each successive pellet, the animal must make increasingly more lever presses. Typically, a progression of 2, 4, 6, 9, 12, 15, 20, 25, 32, 40, 50, 62, 77, 95, 118, etc. is used, derived from the equation:
ratio=[5×e^(0.2×reinforcer #)−5]
At some point, the animal gives up as the motor demands to obtain a single pellet are not deemed worthwhile (i.e. animal reaches “break point” defined as animal's failure to earn a food pellet in 20 minutes).
Study B: Based on Study 1 outcome, a follow-up PR study was conducted utilizing a larger cohort size (72 rats total), and incorporating a lower dose of psilocybin (0.025 mg/kg SC) (FIG. 2C and FIG. 2D). […] Separation of rats based on the lowest average break point recorded over the 7 days prior to testing identified a “low responder” subgroup of N=24 rats. […] There was no treatment effect on session duration (F3,69=2.4; P=0.07, NS), although there was trend for this to be increased at the 0.1 mg/kg dose (Veh: 15.1+2.0 min; Psilo 0.1 mg/kg: 18.7+2.5 min).

[3] = 0.025-0.1 mg/kg SC, all 72 rats

## CN(C)CCc1c[nH]c2cccc(OP(=O)(O)O)c12 [psilocybin, 4-phosphoryloxy-N,N-dimethyltryptamine]
[1]; high doses
  motor activity distance travelled: slightly decreased distanced travelled
[1]; low doses
  motor activity distance travelled: increase in motor activity distance travelled
[2]; 0.1 mg/kg, low responder cohort
  session duration: 18.7+2.5 min
[2]; [3]
  break point: no treatment group was significantly different to vehicle
  number of lever presses, session duration: no main effect of treatment
[2]; 0.05-0.1 mg/kg pretreatment, low responder cohort N=24, relative to vehicle
  lever press and break point: increases in both measures

From patent US20230233584A1, “EXTENDED RELEASE 5-HT RECEPTOR AGONISTS FOR NEUROLOGICAL CONDITIONS” (Diamond Therapeutics Inc., priority 2020, published 2023)
